From US20200262877A1, “ION CHANNEL-BINDING PEPTIDES AND METHODS OF USE THEREOF” (priority 2017, published 2020)
Where two headings read alike, the source gives them in different places.

How the values were obtained:
[1] = biological target: Nav1.3 sodium channel (human SCN3A gene) (Homo sapiens, UniProt Q9NY46); test: cell-based; set-up: host or cells: CHO
panel of 20 ion channels = format: cell-based; details: potassium channels of the panel; 0.2 or 20 μM; FIG. 2
Protocol: This example describes a method for assaying ion channel activity in cells.
Peptides were screened in duplicate at final concentrations of 20 μM and 200 nM, as determined by amino acid analysis, and diluted into HEPES buffered physiological saline (HBPS). HEK293 or CHO cells from the American Type Culture Collection (ATCC) were transfected with the appropriate ion channel before use. HEK293 cells were grown in Dulbecco's Modified Eagle Medium/Nutrient Mixture F-12, and CHO cells were cultured in Ham's F-12 media. All cultures were supplemented with 10% fetal bovine serum, 100 U/ml penicillin G, 100 μg/ml streptomycin sulfate, and the appropriate selection antibiotics. Prior to use, cells were washed twice with Hank's Balanced Salt Solution, and treated with Accutase cell detachment solution (Sigma-Aldrich). Cells were then washed. Peptides and controls were incubated with cells for at least five minutes.
Percent inhibition was defined as: (1-(Ipeptide/Icontrol))×100%).
Percent values were calculated using the following formula: % activation=(IPeptide/Icontrol)×100%, where IPeptide is the current produced by co-application a peptide with agonist, and Icontrol refers to the current produced by stimulation in control. Control used for each ion channel is the reference compound matched to a particular channel, as illustrated in TABLE 10 below.

Chain of Nav1.3 sodium channel (human SCN3A gene) (Q9NY46 whole entry): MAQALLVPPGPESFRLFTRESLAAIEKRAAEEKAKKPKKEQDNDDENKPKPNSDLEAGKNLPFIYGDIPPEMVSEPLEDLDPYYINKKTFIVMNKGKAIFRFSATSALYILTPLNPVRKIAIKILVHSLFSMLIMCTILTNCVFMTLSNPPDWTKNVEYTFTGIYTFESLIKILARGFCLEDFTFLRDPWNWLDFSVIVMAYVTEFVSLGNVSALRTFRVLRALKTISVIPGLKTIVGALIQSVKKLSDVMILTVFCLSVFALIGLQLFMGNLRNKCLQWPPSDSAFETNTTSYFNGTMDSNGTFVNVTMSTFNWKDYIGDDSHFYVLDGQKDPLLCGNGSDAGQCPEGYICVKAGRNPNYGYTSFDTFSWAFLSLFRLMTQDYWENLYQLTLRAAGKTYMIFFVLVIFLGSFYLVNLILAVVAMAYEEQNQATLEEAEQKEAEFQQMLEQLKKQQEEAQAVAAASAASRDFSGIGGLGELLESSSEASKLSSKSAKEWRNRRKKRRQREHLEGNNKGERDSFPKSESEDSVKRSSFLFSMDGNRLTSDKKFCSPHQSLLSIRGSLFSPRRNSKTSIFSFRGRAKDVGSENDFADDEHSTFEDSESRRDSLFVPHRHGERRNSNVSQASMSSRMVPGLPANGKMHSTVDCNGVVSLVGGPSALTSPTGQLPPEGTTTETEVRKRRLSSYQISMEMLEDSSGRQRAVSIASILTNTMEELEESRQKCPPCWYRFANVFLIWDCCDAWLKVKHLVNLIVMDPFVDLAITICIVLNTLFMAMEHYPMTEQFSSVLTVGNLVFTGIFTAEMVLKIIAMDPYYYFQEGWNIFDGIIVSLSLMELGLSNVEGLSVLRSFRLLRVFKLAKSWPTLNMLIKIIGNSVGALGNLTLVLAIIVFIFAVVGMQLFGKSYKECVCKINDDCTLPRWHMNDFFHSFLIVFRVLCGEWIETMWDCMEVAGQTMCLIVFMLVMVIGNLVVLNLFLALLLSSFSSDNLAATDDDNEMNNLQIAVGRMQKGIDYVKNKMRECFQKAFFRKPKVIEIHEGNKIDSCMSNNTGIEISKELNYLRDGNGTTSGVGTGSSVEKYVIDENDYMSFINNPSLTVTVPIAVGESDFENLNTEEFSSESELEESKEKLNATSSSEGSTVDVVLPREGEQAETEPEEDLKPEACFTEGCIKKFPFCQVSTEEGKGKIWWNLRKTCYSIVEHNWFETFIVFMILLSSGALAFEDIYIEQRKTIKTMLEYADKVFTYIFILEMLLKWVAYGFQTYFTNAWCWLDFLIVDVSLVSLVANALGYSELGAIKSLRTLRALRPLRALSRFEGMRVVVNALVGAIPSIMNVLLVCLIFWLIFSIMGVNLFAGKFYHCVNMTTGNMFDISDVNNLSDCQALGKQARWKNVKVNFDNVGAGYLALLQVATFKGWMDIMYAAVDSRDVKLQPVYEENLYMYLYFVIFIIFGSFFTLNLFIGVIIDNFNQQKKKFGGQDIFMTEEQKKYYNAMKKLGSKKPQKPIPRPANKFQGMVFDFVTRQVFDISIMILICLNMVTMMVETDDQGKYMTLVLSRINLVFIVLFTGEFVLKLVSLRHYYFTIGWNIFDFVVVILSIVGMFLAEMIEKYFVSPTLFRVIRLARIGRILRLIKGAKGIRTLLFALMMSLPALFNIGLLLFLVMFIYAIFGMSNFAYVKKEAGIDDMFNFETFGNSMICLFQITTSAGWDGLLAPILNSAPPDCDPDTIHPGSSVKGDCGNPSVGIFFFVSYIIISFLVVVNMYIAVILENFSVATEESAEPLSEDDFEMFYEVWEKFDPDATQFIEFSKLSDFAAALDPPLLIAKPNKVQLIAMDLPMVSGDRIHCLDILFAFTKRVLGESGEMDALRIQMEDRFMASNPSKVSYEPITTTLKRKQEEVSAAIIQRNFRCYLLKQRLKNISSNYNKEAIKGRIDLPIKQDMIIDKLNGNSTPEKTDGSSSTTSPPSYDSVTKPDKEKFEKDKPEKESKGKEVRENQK

| Compound | IC50 ([1]; read-out: IC50 Nav1.3 ion channel inhibition, TP1) [nM] | IC50 ([1]; read-out: IC50 Nav1.3 ion channel inhibition, TP2) [nM] | Activity on potassium channels (panel of 20 ion channels) |
| --- | --- | --- | --- |
| NC1=N[C@H](O)[C@H]2[C@H]3O[C@]4(O)O[C@@H]([C@@H](O)[C@@]2(N1)[C@@H]4O)[C@]3(O)CO [TTX, Tetrodotoxin, reference compound] | 33 | 28 | – |
| GSQIDTNVKCSGSSKCVKICIDRYNTRGAKCINGRCTCYP [SEQ ID NO: 20] | – | – | showed activity on various subsets of potassium channels |
| GSVVIGQRCYRSPDCYSACKKLVGKATGKCTNGRCDC [SEQ ID NO: 26] | – | – | showed activity on various subsets of potassium channels |
